Tests used:
Assay type in all cases: physicochemical
[1] = Dynamic vapour sorption (DVS) of selected salts (Example 8)
Procedure: DVS: The moisture sorption properties of the feed API were analyzed by DVS Intrinsic instrument (Surface Measurement System). Approximately 20-50 mg of API was weighed on an aluminum pan and loaded into the instrument equilibrated at 25° C. The sample was allowed to equilibrate under dry atmosphere (0% relative humidity) for 60 minutes before increasing the humidity from 0% to 30% at 5% step increment and from 30% to 90% at 10% step increment. A desorption cycle was also applied from 90% to 30% (10% step) and from 30% to 0% (5% decrement). A rate of change in mass per time unit (dm/dt) of 0.002%/min was set as the equilibrium parameter. Kinetic and isotherm graphs were calculated.

[2] = Suspension equilibration of sorbate salt at 20 and 40° C. (Example 10, Experiments 3, 4, 9); conditions: one solvent per sample; for Observations (t = 1 d @ 40° C.) / Observations (t = 10 d @ 40° C.) / Observations (t = 1 d @ 20° C.) / Observations (t = 10 d @ 20° C.): sorbate salt Form A in 5 vol solvent; for Observations (t = 0 @ 40° C.) / Observations (t = 0 @ 20° C.): sorbate salt Form A, ca. 50 mg in 5 vol solvent; for XRPD (IPC, 6 d, wet): moist pellet after 6 d; for XRPD (post oven dried): pellet after oven drying
Procedure: The purpose of this panel is to determine if Form A evolves into a supra-ordinate form. The companion panel at 40° C. set-point is in place to detect enantiotropic behaviour via different relative proportions in different solvents. XRPD data of the moist pellets obtained from the suspension equilibration study at 20° C.
The relevant solvent (5 vol) was added to the appropriate vial and the suspensions were stirred and warmed to the predetermined temperature with stirring. […]

[3] = Suspension equilibration of the monofumarate salt at 20° C. and 40° C. (Experiment References 6, 7, 8); conditions: suspension equilibration at 20° C.
Procedure: Separate portions of the tabernanthalog monofumarate salt (Sample Reference 1, Pattern #1, ca 50 mg, 1.0 wt.) were charged to separate vessels. The appropriate solvents (e.g. 250 μl, 5.0 vol), were charged to the vessels and the mixtures were stirred for several days at their relevant temperatures e.g. 20 and 40° C. After this time the products were cooled, isolated by centrifugation, analyzed as wet pellet (suffix-1) by XRPD and dried under reduced pressure at 40° C. (suffix-2) and re-analyzed by XRPD and companion analyses for evidence of alternative crystalline forms.
The tabernanthalog monofumarate salt (Sample Reference 1, Pattern #1) was subjected to this technique at ambient temperature (20° C., Table 35) and at elevated temperature (40° C., Table 36), in a diverse range of solvents. The primary aim is to identify a stable, anhydrous monotropic form that is suitable for future development.
The tabernanthalog monofumarate salt (Sample Reference 1, Pattern #1, 1.0 g, 1 wt) was suspended in water (5 ml, 5 vol) at 20° C. for 10 days (the suspension was sub-sampled to monitor the conversion to Pattern #6a by XRPD). The suspension was filtered through a sintered funnel and the filter cake was dried under nitrogen flow for ca. 24 h. Sample 8-A4 (Experiment Reference 8-Sample Reference A4) was collected as a brown solid (560.6 mg, 56% yield uncorr.). Yield was not corrected for impurities, solvents, etc.

[4] = suspension equilibration at 40° C.
[5] = suspension equilibration at 20° C.

COc1ccc2c3c([nH]c2c1)CCN(C)CC3.O=C(O)c1ccccc1 [Tabernanthalog• Benzoate]
0.046%: DVS 0 to 90 to 0% RH (dm/dt <0.002%), mass change ([1]; sorption, 80.0% RH)
0.118%: DVS 0 to 90 to 0% RH (dm/dt <0.002%), mass change ([1]; desorption, 90.0% RH) | DVS 0 to 90 to 0% RH (dm/dt <0.002%), mass change ([1]; sorption, 90.0% RH)
0.002%: DVS 0 to 90 to 0% RH (dm/dt <0.002%), mass change ([1]; sorption, 10.0% RH) | DVS 0 to 90 to 0% RH (dm/dt <0.002%), mass change ([1]; sorption, 30.0% RH) | DVS 0 to 90 to 0% RH (dm/dt <0.002%), mass change ([1]; sorption, 40.0% RH)
0.006%: DVS 0 to 90 to 0% RH (dm/dt <0.002%), mass change ([1]; sorption, 50.0% RH)
−0.001%: DVS 0 to 90 to 0% RH (dm/dt <0.002%), mass change ([1]; desorption, 60.0% RH) | DVS 0 to 90 to 0% RH (dm/dt <0.002%), mass change ([1]; sorption, 5.0% RH)
−0.018%: DVS 0 to 90 to 0% RH (dm/dt <0.002%), mass change ([1]; desorption, 40.0% RH)
0.034%: DVS 0 to 90 to 0% RH (dm/dt <0.002%), mass change ([1]; desorption, 70.0% RH)
−0.023%: DVS 0 to 90 to 0% RH (dm/dt <0.002%), mass change ([1]; desorption, 30.0% RH)
−0.037%: DVS 0 to 90 to 0% RH (dm/dt <0.002%), mass change ([1]; desorption, 0.0% RH)
−0.003%: DVS 0 to 90 to 0% RH (dm/dt <0.002%), mass change ([1]; sorption, 20.0% RH)
−0.034%: DVS 0 to 90 to 0% RH (dm/dt <0.002%), mass change ([1]; desorption, 5.0% RH)
0.063%: DVS 0 to 90 to 0% RH (dm/dt <0.002%), mass change ([1]; desorption, 80.0% RH)
−0.032%: DVS 0 to 90 to 0% RH (dm/dt <0.002%), mass change ([1]; desorption, 10.0% RH) | DVS 0 to 90 to 0% RH (dm/dt <0.002%), mass change ([1]; desorption, 15.0% RH)
−0.014%: DVS 0 to 90 to 0% RH (dm/dt <0.002%), mass change ([1]; desorption, 50.0% RH)
0.00%: DVS 0 to 90 to 0% RH (dm/dt <0.002%), mass change ([1]; sorption, 0.0% RH)
0.009%: DVS 0 to 90 to 0% RH (dm/dt <0.002%), mass change ([1]; sorption, 60.0% RH) | DVS 0 to 90 to 0% RH (dm/dt <0.002%), mass change ([1]; sorption, 70.0% RH)
−0.002%: DVS 0 to 90 to 0% RH (dm/dt <0.002%), mass change ([1]; sorption, 15.0% RH) | DVS 0 to 90 to 0% RH (dm/dt <0.002%), mass change ([1]; sorption, 25.0% RH)
−0.029%: DVS 0 to 90 to 0% RH (dm/dt <0.002%), mass change ([1]; desorption, 20.0% RH)
−0.028%: DVS 0 to 90 to 0% RH (dm/dt <0.002%), mass change ([1]; desorption, 25.0% RH)

CC=CC=CC(=O)O.COc1ccc2c3c([nH]c2c1)CCN(C)CC3 [Experiment 4-Sample I]
Form A: XRPD (IPC, 6 d, wet) [2, 4] | XRPD (post oven dried) [2, 4]
Suspension: Observations (t = 1 d @ 40° C.) [2] | Observations (t = 10 d @ 40° C.) [2] | Observations (t = 0 @ 40° C.) [2]

C/C=C/C=C/C(=O)O.COc1ccc2c3c([nH]c2c1)CCN(C)CC3 [Experiment 4-Sample O]
Suspension: Observations (t = 1 d @ 40° C.) [2] | Observations (t = 10 d @ 40° C.) [2] | Observations (t = 0 @ 40° C.) [2]

COc1ccc2c3c([nH]c2c1)CCN(C)CC3.O=C(O)/C=C/C(=O)O [Tabernanthalog•Monofumarate (CAT8931)]
Suspension: Observations (t = 0 @ 20° C.) ([3]; 6-A, Acetone) | Observations (t = 1 d @ 20° C.) ([3]; 6-A, Acetone) | Observations t = 7 d @ 20° C. ([3]; 6-A, Acetone) | Observations (t = 0 @ 20° C.) ([3]; 6-B, Acetonitrile) | Observations (t = 1 d @ 20° C.) ([3]; 6-B, Acetonitrile) | Observations t = 7 d @ 20° C. ([3]; 6-B, Acetonitrile) | Observations (t = 0 @ 20° C.) ([3]; 6-C, tert-Butylmethyl ether) | Observations (t = 1 d @ 20° C.) ([3]; 6-C, tert-Butylmethyl ether) | Observations t = 7 d @ 20° C. ([3]; 6-C, tert-Butylmethyl ether) | Observations (t = 0 @ 20° C.) ([3]; 6-D, Chlorobenzene) | Observations (t = 1 d @ 20° C.) ([3]; 6-D, Chlorobenzene) | Observations t = 7 d @ 20° C. ([3]; 6-D, Chlorobenzene) | Observations (t = 0 @ 20° C.) ([3]; 6-E, Dichloromethane) | Observations (t = 1 d @ 20° C.) ([3]; 6-E, Dichloromethane) | Observations t = 7 d @ 20° C. ([3]; 6-E, Dichloromethane) | Observations (t = 0 @ 20° C.) ([3]; 6-F, Ethanol) | Observations (t = 1 d @ 20° C.) ([3]; 6-F, Ethanol) | Observations t = 7 d @ 20° C. ([3]; 6-F, Ethanol) | Observations (t = 0 @ 20° C.) ([3]; 6-G, Ethyl acetate) | Observations (t = 1 d @ 20° C.) ([3]; 6-G, Ethyl acetate) | Observations t = 7 d @ 20° C. ([3]; 6-G, Ethyl acetate) | Observations (t = 0 @ 20° C.) ([3]; 6-H, Ethyl formate) | Observations (t = 1 d @ 20° C.) ([3]; 6-H, Ethyl formate) | Observations t = 7 d @ 20° C. ([3]; 6-H, Ethyl formate) | Observations (t = 0 @ 20° C.) ([3]; 6-I, Heptane) | Observations (t = 1 d @ 20° C.) ([3]; 6-I, Heptane) | Observations t = 7 d @ 20° C. ([3]; 6-I, Heptane) | Observations (t = 0 @ 20° C.) ([3]; 6-J, Isopropyl acetate) | Observations (t = 1 d @ 20° C.) ([3]; 6-J, Isopropyl acetate) | Observations t = 7 d @ 20° C. ([3]; 6-J, Isopropyl acetate) | Observations (t = 0 @ 20° C.) ([3]; 6-K, Methanol) | Observations (t = 1 d @ 20° C.) ([3]; 6-K, Methanol) | Observations t = 7 d @ 20° C. ([3]; 6-K, Methanol) | Observations (t = 0 @ 20° C.) ([3]; 6-L, Methyl acetate) | Observations (t = 1 d @ 20° C.) ([3]; 6-L, Methyl acetate) | Observations t = 7 d @ 20° C. ([3]; 6-L, Methyl acetate) | Observations (t = 0 @ 20° C.) ([3]; 6-M, Methylethyl ketone) | Observations (t = 1 d @ 20° C.) ([3]; 6-M, Methylethyl ketone) | Observations t = 7 d @ 20° C. ([3]; 6-M, Methylethyl ketone) | Observations (t = 0 @ 20° C.) ([3]; 6-N, 2-Methyl THF) | Observations (t = 1 d @ 20° C.) ([3]; 6-N, 2-Methyl THF) | Observations t = 7 d @ 20° C. ([3]; 6-N, 2-Methyl THF) | Observations (t = 0 @ 20° C.) ([3]; 6-O, Nitromethane) | Observations (t = 1 d @ 20° C.) ([3]; 6-O, Nitromethane) | Observations t = 7 d @ 20° C. ([3]; 6-O, Nitromethane) | Observations (t = 0 @ 20° C.) ([3]; 6-P, 2-Propanol) | Observations (t = 1 d @ 20° C.) ([3]; 6-P, 2-Propanol) | Observations t = 7 d @ 20° C. ([3]; 6-P, 2-Propanol) | Observations (t = 0 @ 20° C.) ([3]; 6-Q, Tetrahydrofuran) | Observations (t = 1 d @ 20° C.) ([3]; 6-Q, Tetrahydrofuran) | Observations t = 7 d @ 20° C. ([3]; 6-Q, Tetrahydrofuran) | Observations (t = 0 @ 20° C.) ([3]; 6-R, Toluene) | Observations (t = 1 d @ 20° C.) ([3]; 6-R, Toluene) | Observations t = 7 d @ 20° C. ([3]; 6-R, Toluene) | Observations (t = 0 @ 20° C.) ([3]; 6-S, Water) | Observations (t = 1 d @ 20° C.) ([3]; 6-S, Water) | Observations t = 7 d @ 20° C. ([3]; 6-S, Water)

CC=CC=CC(=O)O.COc1ccc2c3c([nH]c2c1)CCN(C)CC3 [Experiment 4-Sample D]
Form A: XRPD (IPC, 6 d, wet) [2, 4] | XRPD (post oven dried) [2, 4]
Suspension: Observations (t = 1 d @ 40° C.) [2] | Observations (t = 10 d @ 40° C.) [2] | Observations (t = 0 @ 40° C.) [2]

C/C=C/C=C/C(=O)O.COc1ccc2c3c([nH]c2c1)CCN(C)CC3 [Experiment 4-Sample P]
Form A: XRPD (IPC, 6 d, wet) [2, 4] | XRPD (post oven dried) [2, 4]
Suspension: Observations (t = 1 d @ 40° C.) [2] | Observations (t = 10 d @ 40° C.) [2] | Observations (t = 0 @ 40° C.) [2]

CC=CC=CC(=O)O.COc1ccc2c3c([nH]c2c1)CCN(C)CC3 [Experiment 3-Sample O]
Suspension: Observations (t = 1 d @ 20° C.) [2] | Observations (t = 10 d @ 20° C.) [2] | Observations (t = 0 @ 20° C.) [2]
Form A: XRPD (IPC, 6 d, wet) [2, 5] | XRPD (post oven dried) [2, 5]

C/C=C/C=C/C(=O)O.COc1ccc2c3c([nH]c2c1)CCN(C)CC3 [Experiment 4-Sample C]
Suspension: Observations (t = 1 d @ 40° C.) [2] | Observations (t = 10 d @ 40° C.) [2] | Observations (t = 0 @ 40° C.) [2]
Form A: XRPD (IPC, 6 d, wet) [2, 4] | XRPD (post oven dried) [2, 4]

CC=CC=CC(=O)O.COc1ccc2c3c([nH]c2c1)CCN(C)CC3 [Experiment 4-Sample J]
Suspension: Observations (t = 1 d @ 40° C.) [2] | Observations (t = 10 d @ 40° C.) [2] | Observations (t = 0 @ 40° C.) [2]
Form A: XRPD (IPC, 6 d, wet) [2, 4] | XRPD (post oven dried) [2, 4]

C/C=C/C=C/C(=O)O.COc1ccc2c3c([nH]c2c1)CCN(C)CC3 [Experiment 3-Sample C]
Suspension: Observations (t = 1 d @ 20° C.) [2] | Observations (t = 10 d @ 20° C.) [2] | Observations (t = 0 @ 20° C.) [2]
Form A: XRPD (IPC, 6 d, wet) [2, 5] | XRPD (post oven dried) [2, 5]
